Patent US4720546A (priority 1984, dated 1988)
In brackets after ≈: the same amount, converted by molar mass.

Experiments:
in vivo = settings: mouse, po
Candida albicans = test: fungistatic activity test in Casiton agar test tubes (MIC), Candida albicans; type: cell-based; settings: 48 h, read-out: MIC values, C. albicans
Histoplasma capsulatum = test: microbe, parasite or virus in culture; type: cell-based; settings: 168 h, read-out: MIC values, H. capsulatum

Compound | LD50 (in vivo) [mg/kg] | MIC (Candida albicans) [µg/mL] | MIC (Histoplasma capsulatum) [µg/mL]
Clc1ccc([C@@]2(Cn3ccnc3)OC[C@H](COc3ccc(N4CCSCC4)cc3)O2)c(Cl)c1 (relative stereo) [CH CH 0, cis-4-[4-[[2-(2,4-dichlorophenyl)-2-[(imidazol-1-yl)methyl]-1,3-dioxolan-4-yl]methoxy]phenyl]tetrahydro-4H-1,4-thiazine] | ~1000 | 1 to 100 (≈ 1.97 to 197 µM) | 10 (≈ 19.7 µM)
[O-][S+]1CCN(c2ccc(OC[C@H]3CO[C@](Cn4ccnc4)(c4ccc(Cl)cc4Cl)O3)cc2)CC1 (relative stereo) [CH CH 1, cis-4-[4-[[2-(2,4-dichlorophenyl)-2-[(imidazol-1-yl)methyl]-1,3-dioxolan-4-yl]methoxy]-phenyl]-tetrahydro-4H-1,4-thiazine 1-oxide] | ~1000 | 1 to 100 (≈ 1.91 to 191 µM) | 10 (≈ 19.1 µM)
O=S1(=O)CCN(c2ccc(OC[C@H]3CO[C@](Cn4ccnc4)(c4ccc(Cl)cc4Cl)O3)cc2)CC1 (relative stereo) [CH CH 2, cis-4-[4-[[2-(2,4-dichlorophenyl)-2-[(imidazol-1-yl)methyl]-1,3-dioxolan-4-yl]methoxy]phenyl]-tetrahydro-4H-1,4-thiazine 1,1-dioxide] | ≥ 4000 | 0.1 to 1 (≈ 0.186 to 1.86 µM) | 1 (≈ 1.86 µM)
Clc1ccc([C@@]2(Cn3cncn3)OC[C@H](COc3ccc(N4CCSCC4)cc3)O2)c(Cl)c1 (relative stereo) [CH N 0, cis-4-[4-[[2-(2,4-dichlorophenyl)-2-[(1H-1,2,4-triazol-1-yl)methyl]-1,3-dioxolan-4-yl]methoxy]phenyl]-tetrahydro-4H-1,4-thiazine] | ≥ 5000 | 0.1 to 1 (≈ 0.197 to 1.97 µM) | 10 (≈ 19.7 µM)
[O-][S+]1CCN(c2ccc(OC[C@H]3CO[C@](Cn4cncn4)(c4ccc(Cl)cc4Cl)O3)cc2)CC1 (relative stereo) [CH N 1, cis-4-[4-[[2-(2,4-dichlorophenyl)-2-[(1H-1,2,4-triazol-1-yl)methyl]-1,3-dioxolan-4-yl]methoxy]phenyl]-tetrahydro-4H-1,4-thiazine 1-oxide] | ~4000 | 1 to 100 (≈ 1.91 to 191 µM) | 100 (≈ 191 µM)
O=S1(=O)CCN(c2ccc(OC[C@H]3CO[C@](Cn4cncn4)(c4ccc(Cl)cc4Cl)O3)cc2)CC1 (relative stereo) [CH N 2, cis-4-[4-[[2-(2,4-dichlorophenyl)-2-[(1H-1,2,4-triazol-1-yl)methyl]-1,3-dioxolan-4-yl]methoxy]phenyl]-tetrahydro-4H-1,4-thiazine 1,1-dioxide] | ≥ 5000 | 0.1 to 10 (≈ 0.185 to 18.5 µM) | 1 (≈ 1.85 µM)
O=S1(=O)CCN(c2ccc(OC[C@H]3CO[C@](Cn4cnnc4)(c4ccc(Cl)cc4Cl)O3)cc2)CC1 (relative stereo) [N CH 2, cis-4-[4-[[2-(2,4-dichlorophenyl)-2-[(4H-1,2,4-triazol-4-yl)methyl]-1,3-dioxolan--4-yl]methoxy]phenyl]-tetrahydro-4H-1,4-thiazine 1,1-dioxide] | ≥ 4000 | 0.1 to 10 (≈ 0.185 to 18.5 µM) | > 100
